Assay results published in patent US20220009920A1 (GB005, Inc., priority 2020, published 2022).

How the values were obtained:
Experiment in all cases: Large panel kinase profiling
Type in all cases: biochemical
Details in all cases: 1 μM test article, 1 mM ATP
GRK4 = molecular target: T1, GRK4 (Homo sapiens, UniProt P32298)
T1 construct: AssayQuant Technologies, Inc. (service provider)
In short: (§1)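 Kinase activity was followed with the PhosphoSens CSox-Sensor platform, testing compound at 1 μM in the presence of 1 mM ATP. Reactions ran at 30° C. and fluorescence (Ex 360 nm/Em 485 nm) was read kinetically every 1 min.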

HIPK3 = molecular target: T2, HIPK3 (Homo sapiens, UniProt Q9H422)
T2 construct: AssayQuant Technologies, Inc. (service provider)
T2 sequence (Q9H422 whole entry, species assumed): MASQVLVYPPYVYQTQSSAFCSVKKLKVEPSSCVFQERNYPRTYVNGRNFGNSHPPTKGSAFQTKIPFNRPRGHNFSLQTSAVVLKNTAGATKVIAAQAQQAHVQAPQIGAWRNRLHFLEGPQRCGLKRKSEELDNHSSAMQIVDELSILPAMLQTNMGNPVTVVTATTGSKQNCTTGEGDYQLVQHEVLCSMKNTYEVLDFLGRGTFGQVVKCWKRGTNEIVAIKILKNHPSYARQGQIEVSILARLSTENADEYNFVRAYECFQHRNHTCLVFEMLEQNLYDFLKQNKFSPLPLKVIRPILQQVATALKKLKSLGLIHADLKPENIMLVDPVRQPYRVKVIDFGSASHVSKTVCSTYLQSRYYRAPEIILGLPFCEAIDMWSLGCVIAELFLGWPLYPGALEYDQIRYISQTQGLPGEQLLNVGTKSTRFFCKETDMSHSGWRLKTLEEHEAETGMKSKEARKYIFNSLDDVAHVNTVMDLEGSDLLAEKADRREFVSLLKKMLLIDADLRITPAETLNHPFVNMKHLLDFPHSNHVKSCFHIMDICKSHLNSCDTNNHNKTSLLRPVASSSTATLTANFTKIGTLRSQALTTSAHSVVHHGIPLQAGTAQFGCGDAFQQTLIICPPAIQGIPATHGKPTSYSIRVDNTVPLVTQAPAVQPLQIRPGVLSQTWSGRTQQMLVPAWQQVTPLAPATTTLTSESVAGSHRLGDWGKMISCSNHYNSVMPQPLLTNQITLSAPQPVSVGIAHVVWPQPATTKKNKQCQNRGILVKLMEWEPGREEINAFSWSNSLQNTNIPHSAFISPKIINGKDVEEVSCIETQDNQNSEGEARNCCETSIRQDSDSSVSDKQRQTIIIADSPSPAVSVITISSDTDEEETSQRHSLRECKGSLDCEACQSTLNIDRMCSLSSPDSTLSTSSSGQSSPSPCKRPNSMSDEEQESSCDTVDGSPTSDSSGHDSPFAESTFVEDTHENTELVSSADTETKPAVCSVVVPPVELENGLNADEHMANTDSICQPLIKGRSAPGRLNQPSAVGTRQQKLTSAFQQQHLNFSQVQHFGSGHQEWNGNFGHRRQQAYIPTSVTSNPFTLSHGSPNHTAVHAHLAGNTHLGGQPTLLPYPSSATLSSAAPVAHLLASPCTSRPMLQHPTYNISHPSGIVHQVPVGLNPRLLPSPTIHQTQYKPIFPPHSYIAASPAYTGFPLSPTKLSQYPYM
In short: as §1

SGK2 = molecular target: T3, SGK2 (Homo sapiens, UniProt Q9HBY8)
T3 construct: AssayQuant Technologies, Inc. (contract assay)
T3 sequence (Q9HBY8 1-367): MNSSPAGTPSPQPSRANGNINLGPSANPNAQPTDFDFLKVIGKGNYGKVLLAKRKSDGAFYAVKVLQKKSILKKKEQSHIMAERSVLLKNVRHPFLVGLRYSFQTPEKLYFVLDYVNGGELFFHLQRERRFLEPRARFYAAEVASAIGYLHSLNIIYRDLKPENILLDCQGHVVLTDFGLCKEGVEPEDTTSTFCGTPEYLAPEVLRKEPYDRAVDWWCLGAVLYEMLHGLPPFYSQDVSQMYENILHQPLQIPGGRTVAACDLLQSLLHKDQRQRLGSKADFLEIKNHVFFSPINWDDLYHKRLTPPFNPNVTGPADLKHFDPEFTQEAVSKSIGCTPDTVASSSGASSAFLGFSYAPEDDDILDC
In short: as §1

SGK3 = molecular target: T4, SGK3 (Homo sapiens, UniProt Q96BR1)
T4 construct: AssayQuant Technologies, Inc. (contract assay)
T4 sequence (Q96BR1 1-496): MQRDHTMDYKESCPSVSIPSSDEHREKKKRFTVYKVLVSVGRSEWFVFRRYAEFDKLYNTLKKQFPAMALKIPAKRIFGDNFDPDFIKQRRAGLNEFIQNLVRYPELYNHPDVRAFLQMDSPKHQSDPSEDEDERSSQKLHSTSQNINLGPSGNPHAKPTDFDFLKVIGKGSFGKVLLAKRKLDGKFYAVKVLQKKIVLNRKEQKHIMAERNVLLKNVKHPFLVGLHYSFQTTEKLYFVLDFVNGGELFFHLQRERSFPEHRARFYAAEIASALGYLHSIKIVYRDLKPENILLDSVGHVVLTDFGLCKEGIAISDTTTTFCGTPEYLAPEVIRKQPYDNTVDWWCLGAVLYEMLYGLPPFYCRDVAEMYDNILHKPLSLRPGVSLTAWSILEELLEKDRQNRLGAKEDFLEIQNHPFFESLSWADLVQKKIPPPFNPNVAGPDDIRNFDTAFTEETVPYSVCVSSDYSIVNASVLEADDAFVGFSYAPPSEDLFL
In short: as §1

ZAP70 = molecular target: T5, ZAP70 (Homo sapiens, UniProt P43403)
T5 construct: AssayQuant Technologies, Inc. (contract laboratory that ran the panel)
T5 sequence (P43403 1-619): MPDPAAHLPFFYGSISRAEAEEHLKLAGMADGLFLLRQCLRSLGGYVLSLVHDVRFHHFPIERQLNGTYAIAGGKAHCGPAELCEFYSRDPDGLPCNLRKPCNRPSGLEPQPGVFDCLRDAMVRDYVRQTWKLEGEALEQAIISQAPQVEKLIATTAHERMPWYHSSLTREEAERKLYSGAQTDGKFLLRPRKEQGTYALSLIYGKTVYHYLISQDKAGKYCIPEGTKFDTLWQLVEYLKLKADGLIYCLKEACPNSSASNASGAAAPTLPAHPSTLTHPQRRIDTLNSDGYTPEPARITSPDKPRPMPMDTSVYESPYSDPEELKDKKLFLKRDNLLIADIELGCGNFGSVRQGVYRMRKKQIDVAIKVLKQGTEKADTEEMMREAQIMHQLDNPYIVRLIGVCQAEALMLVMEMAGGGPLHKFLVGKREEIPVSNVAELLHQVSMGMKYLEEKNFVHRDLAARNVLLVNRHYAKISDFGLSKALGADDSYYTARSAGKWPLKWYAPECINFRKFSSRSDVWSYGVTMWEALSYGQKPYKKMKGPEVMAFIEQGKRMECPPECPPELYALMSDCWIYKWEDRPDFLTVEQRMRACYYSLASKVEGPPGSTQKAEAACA
In short: as §1

T1 sequence (P32298 whole entry, species assumed): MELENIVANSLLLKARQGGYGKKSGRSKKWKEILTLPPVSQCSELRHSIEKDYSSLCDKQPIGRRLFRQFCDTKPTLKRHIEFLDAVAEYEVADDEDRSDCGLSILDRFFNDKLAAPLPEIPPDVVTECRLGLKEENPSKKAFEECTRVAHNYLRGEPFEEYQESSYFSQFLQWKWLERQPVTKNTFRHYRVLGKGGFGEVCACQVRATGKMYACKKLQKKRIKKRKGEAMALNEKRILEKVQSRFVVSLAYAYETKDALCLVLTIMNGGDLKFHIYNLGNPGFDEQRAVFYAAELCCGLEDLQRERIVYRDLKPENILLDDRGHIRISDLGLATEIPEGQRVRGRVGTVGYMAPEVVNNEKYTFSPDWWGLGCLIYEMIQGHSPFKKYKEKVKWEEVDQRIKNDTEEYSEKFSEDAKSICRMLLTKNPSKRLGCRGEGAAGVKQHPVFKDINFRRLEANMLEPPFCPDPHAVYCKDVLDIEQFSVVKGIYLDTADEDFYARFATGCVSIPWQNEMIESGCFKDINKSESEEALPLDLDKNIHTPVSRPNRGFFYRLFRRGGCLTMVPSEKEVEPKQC

SMILES | inhibition at 1 µM (GRK4) [%] | inhibition at 1 µM (HIPK3) [%] | inhibition at 1 µM (SGK2) [%] | inhibition at 1 µM (SGK3) [%] | inhibition at 1 µM (ZAP70) [%]
C=CC(=O)N1CCCC(c2c(F)cc(C(N)=O)c3[nH]c4c(c23)CCCCC4)C1 (single isomer, unassigned) [Compound 5-6] | 3.4 | -11.2 | -46.7 | -28.1 | -22.5
C=CC(=O)N1CCC[C@@H](c2c(F)cc(C(N)=O)c3[nH]c4c(c23)CC2(CC4)CC2)C1 [Compound 6-2, (S)-5-(1-acryloylpiperidin-3-yl)-6-fluoro-1,2,4,9-tetrahydrospiro[carbazole-3,1′-cyclopropane]-8-carboxamide] | -53 | 30.6 | -26.2 | -19.9 | 1.7
C=CC(=O)N1CCC[C@@H](c2c(F)cc(C(N)=O)c3[nH]c4c(c23)CCC4)C1 [Compound 10-2, (S)-8-(1-acryloylpiperidin-3-yl)-7-fluoro-1,2,3,4-tetrahydrocyclo-penta[b]indole-5-carboxamide] | -36.1 | 34.7 | -34.9 | -32.5 | -9.5
